# Source: PubChem BioAssay AID248 (DTP/NCI, 2004)
# “And” between values parts separate entries of the source, which are not always exact repeats. Identical values can stand only once. Toxic doses and inconclusive results are not listed.
# Tested on: L1210 leukemia ip in BDF1 mice, survival T/C
# Test: NCI In Vivo Anticancer Drug Screen. Data for tumor model L1210 Leukemia (intraperitoneal) in B6D2F1 (BDF1) mice
# Conditions: endpoint: mean survival time, higher = longer survival
# Method in brief: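 Value reflects the ratio of survival in compound-treated mice to survival in vehicle-treated controls, with both groups carrying the same transplanted tumor.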
# [1] = dose: 100.0 mg/kg/injection, schedule: Q04DX003 (ip), vehicle: Klucel (hydroxypropylcellulose) (HPC)
# [2] = dose: 200.0 mg/kg/injection, schedule: Q04DX003 (ip), vehicle: Klucel (hydroxypropylcellulose) (HPC)
# [3] = dose: 400.0 mg/kg/injection, schedule: Q04DX003 (ip), vehicle: Klucel (hydroxypropylcellulose) (HPC)
# [4] = dose: 100.0 mg/kg/injection, schedule: Q01DX001 (ip), vehicle: saline
# [5] = dose: 100.0 mg/kg/injection, schedule: Q01DX009 (ip), vehicle: Klucel (hydroxypropylcellulose) (HPC)
# [6] = dose: 200.0 mg/kg/injection, schedule: Q01DX009 (ip), vehicle: Klucel (hydroxypropylcellulose) (HPC)
# [7] = dose: 100.0 mg/kg/injection, schedule: Q04DX003 (ip), vehicle: saline with Tween-80
# [8] = dose: 200.0 mg/kg/injection, schedule: Q04DX003 (ip), vehicle: saline with Tween-80
# [9] = dose: 400.0 mg/kg/injection, schedule: Q04DX003 (ip), vehicle: saline with Tween-80
# [10] = dose: 400.0 mg/kg/injection, schedule: Q01DX009 (ip), vehicle: Klucel (hydroxypropylcellulose) (HPC)
# [11] = dose: 100.0 mg/kg/injection, schedule: Q01DX001 (ip), vehicle: carboxymethylcellulose (CMC)
# [12] = dose: 200.0 mg/kg/injection, schedule: Q01DX001 (ip), vehicle: carboxymethylcellulose (CMC)
# [13] = dose: 400.0 mg/kg/injection, schedule: Q01DX001 (ip), vehicle: carboxymethylcellulose (CMC)
# [14] = dose: 200.0 mg/kg/injection, schedule: Q01DX001 (ip), vehicle: saline
# [15] = dose: 400.0 mg/kg/injection, schedule: Q01DX001 (ip), vehicle: saline
# [16] = dose: 100.0 mg/kg/injection, schedule: Q01DX009 (sc), vehicle: olive oil, sesame oil, peanut oil
# [17] = dose: 200.0 mg/kg/injection, schedule: Q01DX009 (sc), vehicle: olive oil, sesame oil, peanut oil
smiles,measurement,setting,value
CC(=N\N=C(N)N)/C(N=Nc1ccc(S(N)(=O)=O)cc1)=N\N=C(N)N,T/C,"dose: 15.0 mg/kg/injection, schedule: Q01DX Z (ip), vehicle: carboxymethylcellulose (CMC)",105 % of control
same,T/C,"dose: 30.0 mg/kg/injection, schedule: Q01DX Z (oral), vehicle: carboxymethylcellulose (CMC)",96 % of control and 102 % of control
same,T/C,"dose: 60.0 mg/kg/injection, schedule: Q01DX Z (ip), vehicle: carboxymethylcellulose (CMC)",160 % of control and 168 % of control and 184 % of control
same,T/C,"dose: 60.0 mg/kg/injection, schedule: Q01DX Z (oral), vehicle: carboxymethylcellulose (CMC)",109 % of control and 120 % of control
same,T/C,"dose: 120.0 mg/kg/injection, schedule: Q01DX Z (oral), vehicle: carboxymethylcellulose (CMC)",113 % of control
O=C(NCCc1ccccc1)Nc1cc([N+](=O)[O-])ccc1F,T/C,[1],94 % of control
same,T/C,[2],96 % of control
same,T/C,[3],102 % of control
COC(=O)c1cc2ccccc2c2c1OCN(C)C2,T/C,"dose: 50.0 mg/kg/injection, schedule: Q01DX001 (ip), vehicle: saline",113 % of control
same,T/C,[4],110 % of control
CC(=O)Nc1nc2ncc(C=Nc3cncnc3)nc2c(=O)[nH]1,T/C,"dose: 100.0 mg/kg/injection, schedule: Q01DX001 (ip), vehicle: alkali diluted with saline",108 % of control
same,T/C,"dose: 200.0 mg/kg/injection, schedule: Q01DX001 (ip), vehicle: alkali diluted with saline",94 % of control
same,T/C,"dose: 400.0 mg/kg/injection, schedule: Q01DX001 (ip), vehicle: alkali diluted with saline",92 % of control
CN(C)Cc1cc(C(C)(C)CC(C)(C)C)cc(CN(C)C)c1O,T/C,[5],97 % of control
same,T/C,[6],99 % of control
OC1CN(C2CCCCC2)C1,T/C,"dose: 100.0 mg/kg/injection, schedule: Q04DX003 (ip), vehicle: saline",98 % of control
CCCCCCCCCCCCCCCCOc1c(Cl)cc(Cl)cc1Cl,T/C,"dose: 100.0 mg/kg/injection, schedule: Q04DX002 (ip), vehicle: Klucel (hydroxypropylcellulose) (HPC)",102 % of control
same,T/C,"dose: 200.0 mg/kg/injection, schedule: Q04DX002 (ip), vehicle: Klucel (hydroxypropylcellulose) (HPC)",98 % of control
same,T/C,"dose: 400.0 mg/kg/injection, schedule: Q04DX002 (ip), vehicle: Klucel (hydroxypropylcellulose) (HPC)",102 % of control
C1=Cc2ccccc2/C1=C/c1ccccc1,T/C,"dose: 100.0 mg/kg/injection, schedule: Q01DX001 (ip), vehicle: other",97 % of control
same,T/C,"dose: 200.0 mg/kg/injection, schedule: Q01DX001 (ip), vehicle: other",95 % of control
same,T/C,"dose: 400.0 mg/kg/injection, schedule: Q01DX001 (ip), vehicle: other",92 % of control
CC(C)(OC(=O)C(NC=O)C(C)(C)S)OC(=O)C(NC=O)C(C)(C)S (stereo not given),T/C,[7],98 % of control
same,T/C,[8],95 % of control
same,T/C,[9],100 % of control
COc1ccc(OC)c(NC(=O)Nc2ccc(OC)cc2OC)c1,T/C,"dose: 100.0 mg/kg/injection, schedule: Q01DX009 (ip), vehicle: saline",110 % of control
same,T/C,"dose: 200.0 mg/kg/injection, schedule: Q01DX009 (ip), vehicle: saline",113 % of control
same,T/C,"dose: 400.0 mg/kg/injection, schedule: Q01DX009 (ip), vehicle: saline",108 % of control
C=CCN1C(=O)c2ccccc2C1=O,T/C,[5],100 % of control
same,T/C,[1],95 % of control
same,T/C,[6],100 % of control
same,T/C,[2],95 % of control
same,T/C,[10],91 % of control
same,T/C,[3],92 % of control
O=[N+]([O-])c1ccc(/C([O-])=C(\C(=S)Nc2ccccc2Cl)[n+]2ccccc2)cc1,T/C,"dose: 100.0 mg/kg/injection, schedule: Q04DX002 (ip), vehicle: saline with Tween-80",96 % of control
same,T/C,"dose: 200.0 mg/kg/injection, schedule: Q04DX002 (ip), vehicle: saline with Tween-80",89 % of control
same,T/C,"dose: 400.0 mg/kg/injection, schedule: Q04DX002 (ip), vehicle: saline with Tween-80",96 % of control
Cc1cccc(C2CCCCC2OS(C)(=O)=O)c1 (stereo not given),T/C,[11],101 % of control
same,T/C,[12],108 % of control
same,T/C,[13],95 % of control
CN(C)C(=O)ON=C1c2ccccc2-c2ccccc21,T/C,[4],103 % of control
same,T/C,[14],97 % of control
same,T/C,[15],103 % of control
O=C1/C(=N/O)Cc2ccccc21,T/C,"dose: 3.13 mg/kg/injection, schedule: Q01DX009 (ip), vehicle: saline with Tween-80",91 % of control
same,T/C,"dose: 6.25 mg/kg/injection, schedule: Q01DX009 (ip), vehicle: saline with Tween-80",91 % of control
same,T/C,"dose: 12.5 mg/kg/injection, schedule: Q01DX009 (ip), vehicle: saline with Tween-80",94 % of control
same,T/C,"dose: 25.0 mg/kg/injection, schedule: Q04DX003 (ip), vehicle: saline with Tween-80",102 % of control
same,T/C,"dose: 50.0 mg/kg/injection, schedule: Q04DX003 (ip), vehicle: saline with Tween-80",94 % of control
CC(C)=CCCBr,T/C,"dose: 50.0 mg/kg/injection, schedule: Q01DX009 (sc), vehicle: olive oil, sesame oil, peanut oil",108 % of control
same,T/C,[16],102 % of control
same,T/C,[17],108 % of control
CC1=CC(=Nc2ccc(N(CCCl)CCCl)cc2)C=CC1=O,T/C,"dose: 50.0 mg/kg/injection, schedule: Q01DX009 (ip), vehicle: Klucel (hydroxypropylcellulose) (HPC)",110 % of control
C#CCN1CCC2=C(C1)c1c(O)cc(C(C)C(C)CCCCC)cc1OC2(C)C (stereo not given),T/C,"dose: 100.0 mg/kg/injection, schedule: Q01DX001 (ip), vehicle: Klucel (hydroxypropylcellulose) (HPC)",95 % of control
same,T/C,"dose: 200.0 mg/kg/injection, schedule: Q01DX001 (ip), vehicle: Klucel (hydroxypropylcellulose) (HPC)",92 % of control
same,T/C,"dose: 400.0 mg/kg/injection, schedule: Q01DX001 (ip), vehicle: Klucel (hydroxypropylcellulose) (HPC)",103 % of control
CC(=O)CC(=O)NCCCc1ccccc1,T/C,[16],101 % of control
same,T/C,[7],97 % of control
same,T/C,[17],103 % of control
same,T/C,[8],103 % of control
same,T/C,"dose: 400.0 mg/kg/injection, schedule: Q01DX009 (sc), vehicle: olive oil, sesame oil, peanut oil",106 % of control
same,T/C,[9],97 % of control
CC(C)c1ccc(C(C2C(=O)CC(C)(C)CC2=O)C2C(=O)CC(C)(C)CC2=O)cc1,T/C,[4],103 % of control
same,T/C,[14],109 % of control
same,T/C,[15],107 % of control
CC(=O)OCC(COC(C)=O)=C1N=C(c2ccccc2)OC1=O,T/C,[5],103 % of control
same,T/C,[1],95 % of control
same,T/C,[6],106 % of control
same,T/C,[2],95 % of control
same,T/C,[10],107 % of control
same,T/C,[3],97 % of control
CCOC(=O)NC1C2CC3C(C2)C31 (stereo not given),T/C,"dose: 50.0 mg/kg/injection, schedule: Q01DX001 (ip), vehicle: carboxymethylcellulose (CMC)",107 % of control
same,T/C,[11],103 % of control
same,T/C,[12],101 % of control
same,T/C,[13],109 % of control
COC(=O)C(C)NC(=O)C(C)NC(=O)c1cnc2ccccc2n1 (stereo not given),T/C,[11],89 % of control
same,T/C,[12],93 % of control
CCOC(=O)CCC(C(=O)OCC)N(CC(=O)OCC)C(=O)c1ccccc1 (stereo not given),T/C,[7],102 % of control
same,T/C,[8],98 % of control
same,T/C,[9],96 % of control
CC(C)(C)NN,T/C,"dose: 5.0 mg/kg/injection, schedule: Q01DX001 (ip), vehicle: saline",102 % of control
same,T/C,"dose: 10.0 mg/kg/injection, schedule: Q01DX001 (ip), vehicle: saline",104 % of control
same,T/C,"dose: 20.0 mg/kg/injection, schedule: Q01DX001 (ip), vehicle: saline",98 % of control
same,T/C,"dose: 40.0 mg/kg/injection, schedule: Q01DX001 (ip), vehicle: saline",94 % of control
same,T/C,"dose: 80.0 mg/kg/injection, schedule: Q01DX001 (ip), vehicle: saline",96 % of control
same,T/C,[4],101 % of control
